Assays:
Format in all cases: functional
SNB-75 = experiment: Growth inhibition of human SNB75 cells assessed as cell growth at 5X10'-6 M after 48 hrs by sulforhodamine B assay; conditions: SNB-75, 48 h, read-out: Activity
RXF 393 = experiment: Growth inhibition of human RXF393 cells assessed as cell growth at 3X10'-8 M after 48 hrs by sulforhodamine B assay; conditions: RXF 393, 48 h, read-out: Activity
ACHN = experiment: Growth inhibition of human ACHN cells assessed as cell growth at 3X10'-9 M after 48 hrs by sulforhodamine B assay; conditions: read-out: Activity
CCRF-CEM [1] = experiment: Growth inhibition of human CCRF-CEM cells assessed as cell growth at 3X10'-5 M after 48 hrs by sulforhodamine B assay; conditions: read-out: Activity
SN12C [2] = experiment: Growth inhibition of human SN12C cells assessed as cell growth at 3X10'-9 M after 48 hrs by sulforhodamine B assay; conditions: read-out: Activity
A549 [3] = experiment: Growth inhibition of human A549/ATCC cells assessed as cell growth at 3X10'-8 M after 48 hrs by sulforhodamine B assay; conditions: A549, 48 h, read-out: Activity
SF-268 = experiment: Growth inhibition of human SF268 cells assessed as cell growth at 3X10'-9 M after 48 hrs by sulforhodamine B assay; conditions: SF-268, 48 h, read-out: Activity
SK-OV-3 = experiment: Growth inhibition of human SKOV3 cells assessed as cell growth at 3X10'-5 M after 48 hrs by sulforhodamine B assay; conditions: SK-OV-3, 48 h, read-out: Activity
A498 = experiment: Growth inhibition of human A498 cells assessed as cell growth at 3X10'-9 M after 48 hrs by sulforhodamine B assay; conditions: A498, 48 h, read-out: Activity
OVCAR-4 = experiment: Growth inhibition of human OVCAR4 cells assessed as cell growth at 3X10'-7 M after 48 hrs by sulforhodamine B assay; conditions: OVCAR-4, 48 h, read-out: Activity
MOLT-4 [4] = experiment: Growth inhibition of human MOLT4 cells assessed as cell growth at 3X10'-6 M after 48 hrs by sulforhodamine B assay; conditions: MOLT-4, 48 h, read-out: Activity
U-251 = experiment: Growth inhibition of human U251 cells assessed as cell growth at 3X10'-8 M after 48 hrs by sulforhodamine B assay; conditions: U-251, 48 h, read-out: Activity
CAKI-1 = experiment: Growth inhibition of human CAKI-1 cells assessed as cell growth at 3X10'-9 M after 48 hrs by sulforhodamine B assay; conditions: CAKI-1, 48 h, read-out: Activity
MCF7 = experiment: Growth inhibition of human MCF7 cells assessed as cell growth at 3X10'-8 M after 48 hrs by sulforhodamine B assay; conditions: MCF7, 48 h, read-out: Activity
UO-31 = experiment: Growth inhibition of human UO31 cells assessed as cell growth at 3X10'-5 M after 48 hrs by sulforhodamine B assay; conditions: UO-31, 48 h, read-out: Activity
IGROV-1 = experiment: Growth inhibition of human IGROV1 cells assessed as cell growth at 3X10'-8 M after 48 hrs by sulforhodamine B assay; conditions: IGROV-1, 48 h, read-out: Activity
SF-539 = experiment: Growth inhibition of human SF539 cells assessed as cell growth at 3X10'-6 M after 48 hrs by sulforhodamine B assay; conditions: SF-539, 48 h, read-out: Activity
SW-620 = experiment: Growth inhibition of human SW620 cells assessed as cell growth at 3X10'-6 M after 48 hrs by sulforhodamine B assay; conditions: SW-620, 48 h, read-out: Activity
MDA-MB-231 [5] = experiment: Growth inhibition of human MDA-MB-231 cells assessed as cell growth at 3X10'-7 M after 48 hrs by sulforhodamine B assay; conditions: MDA-MB-231, 48 h, read-out: Activity
BT-549 = experiment: Growth inhibition of human BT549 cells assessed as cell growth at 3X10'-7 M after 48 hrs by sulforhodamine B assay; conditions: BT-549, 48 h, read-out: Activity
NCI-H322M = experiment: Growth inhibition of human NCI-H322M cells assessed as cell growth at 3X10'-9 M after 48 hrs by sulforhodamine B assay; conditions: read-out: Activity
MDA-MB-231 [6] = experiment: Growth inhibition of human MDA-MB-231 cells assessed as cell growth at 3X10'-8 M after 48 hrs by sulforhodamine B assay; conditions: MDA-MB-231, 48 h, read-out: Activity
MOLT-4 [7] = experiment: Growth inhibition of human MOLT4 cells assessed as cell growth at 3X10'-5 M after 48 hrs by sulforhodamine B assay; conditions: MOLT-4, 48 h, read-out: Activity
OVCAR-3 = experiment: Growth inhibition of human OVCAR3 cells assessed as cell growth at 3X10'-8 M after 48 hrs by sulforhodamine B assay; conditions: OVCAR-3, 48 h, read-out: Activity
CCRF-CEM [8] = experiment: Growth inhibition of human CCRF-CEM cells assessed as cell growth at 3X10'-6 M after 48 hrs by sulforhodamine B assay; conditions: read-out: Activity
PC-3 = experiment: Growth inhibition of human PC3 cells assessed as cell growth at 3X10'-6 M after 48 hrs by sulforhodamine B assay; conditions: PC-3, 48 h, read-out: Activity
NCI-H460 = experiment: Growth inhibition of human NCI-H460 cells assessed as cell growth at 3X10'-7 M after 48 hrs by sulforhodamine B assay; conditions: NCI-H460, 48 h, read-out: Activity
MOLT-4 [9] = experiment: Growth inhibition of human MOLT4 cells assessed as cell growth at 3X10'-8 M after 48 hrs by sulforhodamine B assay; conditions: MOLT-4, 48 h, read-out: Activity
A549 [10] = experiment: Growth inhibition of human A549/ATCC cells assessed as cell growth at 3X10'-5 M after 48 hrs by sulforhodamine B assay; conditions: A549, 48 h, read-out: Activity
TK-10 = experiment: Growth inhibition of human TK10 cells assessed as cell growth at 3X10'-7 M after 48 hrs by sulforhodamine B assay; conditions: TK-10, 48 h, read-out: Activity
RPMI-8226 = experiment: Growth inhibition of human RPMI8226 cells assessed as cell growth at 3X10'-9 M after 48 hrs by sulforhodamine B assay; conditions: RPMI-8226, 48 h, read-out: Activity
SK-MEL-2 = experiment: Growth inhibition of human SK-MEL-2 cells assessed as cell growth at 3X10'-9 M after 48 hrs by sulforhodamine B assay; conditions: SK-MEL-2, 48 h, read-out: Activity
MDA-MB-468 = experiment: Growth inhibition of human MDA-MB-468 cells assessed as cell growth at 3X10'-7 M after 48 hrs by sulforhodamine B assay; conditions: MDA-MB-468, 48 h, read-out: Activity
T47D = experiment: Growth inhibition of human T47D cells assessed as cell growth at 3X10'-5 M after 48 hrs by sulforhodamine B assay; conditions: read-out: Activity
SN12C [11] = experiment: Growth inhibition of human SN12C cells assessed as cell growth at 3X10'-6 M after 48 hrs by sulforhodamine B assay; conditions: read-out: Activity
[12] = Growth inhibition of human Hs 578T cells assessed as cell growth at 3X10'-8 M after 48 hrs by sulforhodamine B assay; conditions: read-out: Activity
MDA-MB-231 [13] = experiment: Growth inhibition of human MDA-MB-231 cells assessed as cell growth at 3X10'-9 M after 48 hrs by sulforhodamine B assay; conditions: MDA-MB-231, 48 h, read-out: Activity

Compound	growth at 5 µM (SNB-75)	growth at 0.03 µM (RXF 393)	growth at 0.003 µM (ACHN)	growth at 30 µM (CCRF-CEM [1])	growth at 0.003 µM (SN12C [2])	growth at 0.03 µM (A549 [3])	growth at 0.003 µM (SF-268)	growth at 0.003 µM (A498)	growth at 0.3 µM (OVCAR-4)	growth at 3 µM (MOLT-4 [4])	growth at 0.03 µM (U-251)	growth at 0.003 µM (CAKI-1)	growth at 0.03 µM (MCF7)	growth at 30 µM (UO-31)	growth at 0.03 µM (IGROV-1)	growth at 3 µM (SF-539)	growth at 3 µM (SW-620)	growth at 0.3 µM (MDA-MB-231 [5])	growth at 0.3 µM (BT-549)	growth at 0.003 µM (NCI-H322M)	other results
COc1cc(-c2nn(-c3cccc(NC(=O)Nc4cc(C(F)(F)F)cc(C(F)(F)F)c4)c3)cc2-c2ccncc2)ccc1Cl	-50%	–	–	–	–	–	–	–	–	–	–	–	–	–	–	–	–	–	–	–	–
COc1cc(-c2nn(-c3cccc(NC(=O)c4ccc(Cl)c(C(F)(F)F)c4)c3)cc2-c2ccncc2)ccc1Cl	–	99%	99%	4%	98%	98%	94%	95%	89%	57%	99%	93%	93%	11%	89%	57%	55%	81%	95%	91%	growth at 30 µM (SK-OV-3): 24%; growth at 0.03 µM (MDA-MB-231 [6]): 97%; growth at 30 µM (MOLT-4 [7]): 24%; growth at 0.03 µM (OVCAR-3): 104%; growth at 3 µM (CCRF-CEM [8]): 32%; growth at 3 µM (PC-3): 31%; growth at 0.3 µM (NCI-H460): 98%; growth at 0.03 µM (MOLT-4 [9]): 97%; growth at 30 µM (A549 [10]): 16%; growth at 0.3 µM (TK-10): 108%; growth at 0.003 µM (RPMI-8226): 97%; growth at 0.003 µM (SK-MEL-2): 92%; growth at 0.3 µM (MDA-MB-468): 89%; growth at 30 µM (T47D): 18%; growth at 3 µM (SN12C [11]): 68%; growth at 0.03 µM [12]: 91%; growth at 0.003 µM (MDA-MB-231 [13]): 99%
O=C(Nc1cccc(-n2cc(-c3ccncc3)c(-c3ccc(Cl)c(O)c3)n2)c1)Nc1ccc(Cl)c(C(F)(F)F)c1	–	93%	97%	-14%	95%	94%	101%	91%	94%	-4%	96%	89%	90%	-28%	109%	-14%	5%	69%	104%	97%	growth at 30 µM (SK-OV-3): -11%; growth at 0.03 µM (MDA-MB-231 [6]): 96%; growth at 30 µM (MOLT-4 [7]): -32%; growth at 0.03 µM (OVCAR-3): 113%; growth at 3 µM (CCRF-CEM [8]): -7%; growth at 3 µM (PC-3): -15%; growth at 0.3 µM (NCI-H460): 94%; growth at 0.03 µM (MOLT-4 [9]): 116%; growth at 30 µM (A549 [10]): -29%; growth at 0.3 µM (TK-10): 101%; growth at 0.003 µM (RPMI-8226): 96%; growth at 0.003 µM (SK-MEL-2): 113%; growth at 0.3 µM (MDA-MB-468): 72%; growth at 30 µM (T47D): 10%; growth at 3 µM (SN12C [11]): 15%; growth at 0.03 µM [12]: 88%; growth at 0.003 µM (MDA-MB-231 [13]): 92%
COc1cc(-c2nn(-c3cccc(NC(=O)c4cccc(C(F)(F)F)c4)c3)cc2-c2ccncc2)ccc1Cl	-2%	–	–	–	–	–	–	–	–	–	–	–	–	–	–	–	–	–	–	–	–
COc1cc(-c2nn(-c3cccc(NC(=O)Nc4cccc(C(F)(F)F)c4)c3)cc2-c2ccncc2)ccc1Cl	-4%	–	–	–	–	–	–	–	–	–	–	–	–	–	–	–	–	–	–	–	–
COc1cc(-c2nn(-c3cccc(NC(=O)Nc4ccc(Cl)c(C(F)(F)F)c4)c3)cc2-c2ccncc2)ccc1Cl	–	93%	102%	2%	95%	94%	97%	90%	96%	9%	94%	92%	92%	-28%	102%	33%	17%	85%	109%	93%	growth at 30 µM (SK-OV-3): -14%; growth at 0.03 µM (MDA-MB-231 [6]): 92%; growth at 30 µM (MOLT-4 [7]): -15%; growth at 0.03 µM (OVCAR-3): 109%; growth at 3 µM (CCRF-CEM [8]): 3%; growth at 3 µM (PC-3): -11%; growth at 0.3 µM (NCI-H460): 101%; growth at 0.03 µM (MOLT-4 [9]): 106%; growth at 30 µM (A549 [10]): -5%; growth at 0.3 µM (TK-10): 101%; growth at 0.003 µM (RPMI-8226): 102%; growth at 0.003 µM (SK-MEL-2): 111%; growth at 0.3 µM (MDA-MB-468): 81%; growth at 30 µM (T47D): 8%; growth at 3 µM (SN12C [11]): 16%; growth at 0.03 µM [12]: 89%; growth at 0.003 µM (MDA-MB-231 [13]): 89%
O=C(Nc1cccc(-n2cc(-c3ccncc3)c(-c3ccc(Cl)c(O)c3)n2)c1)c1ccc(N2CCOCC2)c(C(F)(F)F)c1	20%	–	–	–	–	–	–	–	–	–	–	–	–	–	–	–	–	–	–	–	–
O=C(Nc1cccc(-n2cc(-c3ccncc3)c(-c3ccc(Cl)c(O)c3)n2)c1)Nc1ccc(Cl)c(Cl)c1	–	100%	103%	5%	93%	100%	93%	103%	105%	19%	100%	93%	93%	7%	104%	27%	23%	94%	106%	95%	growth at 0.03 µM (MDA-MB-231 [6]): 100%; growth at 30 µM (MOLT-4 [7]): 6%; growth at 0.03 µM (OVCAR-3): 100%; growth at 3 µM (CCRF-CEM [8]): 10%; growth at 3 µM (PC-3): 6%; growth at 0.3 µM (NCI-H460): 95%; growth at 0.03 µM (MOLT-4 [9]): 99%; growth at 30 µM (A549 [10]): 8%; growth at 0.3 µM (TK-10): 112%; growth at 0.003 µM (RPMI-8226): 103%; growth at 0.003 µM (SK-MEL-2): 98%; growth at 0.3 µM (MDA-MB-468): 76%; growth at 30 µM (T47D): -9%; growth at 3 µM (SN12C [11]): 17%; growth at 0.03 µM [12]: 71%; growth at 0.003 µM (MDA-MB-231 [13]): 102%
O=C(Nc1cccc(-n2cc(-c3ccncc3)c(-c3ccc(Cl)c(O)c3)n2)c1)Nc1cc(C(F)(F)F)cc(C(F)(F)F)c1	-46%	–	–	–	–	–	–	–	–	–	–	–	–	–	–	–	–	–	–	–	–

— ChEMBL document CHEMBL2440076, “New triarylpyrazoles as broad-spectrum anticancer agents: design, synthesis, and biological evaluation” (Eur J Med Chem, 2013)
